Measurements from patent publication US6503881B2 (priority 1996, dated 2003).
Where two headings read alike, the source gives them in different places.

Test system: bacteria
[1] = A. calcoaceticus AC002, agarose dilution
[2] = E. cloacae ECL007, agarose dilution
[3] = E. coli ECO005, agarose dilution
[4] = E. faecalis EFS001, agarose dilution
[5] = E. faecalis EFS008, agarose dilution
[6] = K. pneumoniae KP001, agarose dilution
[7] = P. aeruginosa PA004, agarose dilution
[8] = S. aureus SA014, agarose dilution
[9] = S. aureus SA093, agarose dilution
[10] = S. epidermidis SE010, agarose dilution
[11] = S. maltophilia SMA002, agarose dilution
[12] = S. marcescens SMS003, agarose dilution

Substance: I L K K W P W W W R K [MBI 11D15CN]
- MIC (E. faecalis EFS002): 32 mg/L
- MIC (E. faecium EFM003): 4 mg/L
- MIC (S. aureus SA009): 8 mg/L

Substance: I L K K W P W W W R R K [MBI 11G5CN]
- MIC (A. calcoaceticus AC002): 4 mg/L
- MIC (E. cloacae ECL007): >128 mg/L
- MIC (E. coli ECO003): 16 mg/L
- MIC (E. faecalis EFS002): 16 mg/L
- MIC (E. faecium EFM002): 8 mg/L
- MIC (K. pneumoniae KP001): >128 mg/L
- MIC (P. aeruginosa PA003): >128 mg/L
- MIC (S. aureus SA012): 4 mg/L
- MIC (S. epidermidis SE002): 2 mg/L
- MIC (S. maltophilia SMA002): 64 mg/L
- MIC (S. marcescens SMS004): >128 mg/L

Substance: I L K K W P W [MBI 11D10M8]
- MIC (E. faecalis EFS002): 32 mg/L
- MIC (E. faecium EFM003): 32 mg/L
- MIC (S. aureus SA008): 32 mg/L

Substance: I L K K W V W W V W R R K [MBI 11F1CN]
- MIC (E. cloacae ECL007): >128 mg/L
- MIC (E. coli ECO003): 8 mg/L
- MIC (E. faecalis EFS004): 16 mg/L
- MIC (E. faecium EFM003): 2 mg/L
- MIC (K. pneumoniae KP002): 32 mg/L
- MIC (P. aeruginosa PA004): 64 mg/L
- MIC (S. aureus SA009): 2 mg/L
- MIC (S. marcescens SBSM1): >128 mg/L
- MIC (S. marcescens SMS003): >128 mg/L

Substance: I L K K W W W P W R K [MBI 11D14CN]
- MIC (E. faecalis EFS002): 32 mg/L
- MIC (E. faecium EFM003): 1 mg/L
- MIC (S. aureus SA009): 4 mg/L

Substance: I L K K W W W P W R R K [MBI 11G4CN]
- MIC (A. calcoaceticus AC002): 4 mg/L
- MIC (E. cloacae ECL007): >128 mg/L
- MIC (E. coli ECO005): 32 mg/L
- MIC (E. faecalis EFS002): 32 mg/L
- MIC (E. faecium EFM003): 1 mg/L
- MIC (K. pneumoniae KP001): >128 mg/L
- MIC (P. aeruginosa PA004): >128 mg/L
- MIC (S. aureus SA004): 1 mg/L
- MIC (S. epidermidis SE010): 2 mg/L
- MIC (S. maltophilia SMA002): 64 mg/L
- MIC (S. marcescens SMS003): >128 mg/L

Substance: I L K K Y P W Y P W R R K [MBI 11A5CN]
- MIC (A. calcoaceticus AC001): >128 mg/L
- MIC (E. cloacae ECL007): >128 mg/L
- MIC (E. coli ECO003): 128 mg/L
- MIC (E. faecalis EFS002): 32 mg/L
- MIC (E. faecium EFM003): 4 mg/L
- MIC (K. pneumoniae KP001): >128 mg/L
- MIC (P. aeruginosa PA003): >128 mg/L
- MIC (S. aureus SA002): 6 mg/L
- MIC (S. maltophilia SMA002): >128 mg/L
- MIC (S. marcescens SMS003): >128 mg/L

Substance: I L K W P W W P W R K [MBI 11B5CN]
- MIC [1]: 4 mg/L
- MIC [2]: >128 mg/L
- MIC [3]: 16 mg/L
- MIC [4]: 2 mg/L
- MIC (E. faecalis EFS002): 16 mg/L
- MIC [5]: 8 mg/L
- MIC (E. faecium EFM002): 1 mg/L
- MIC [6]: 16 mg/L
- MIC [7]: >128 mg/L
- MIC (S. aureus SA005): 2 mg/L
- MIC [8]: 2 mg/L
- MIC [9]: 1 mg/L
- MIC [10]: 1 mg/L
- MIC [11]: 64 mg/L
- MIC [12]: >128 mg/L

Substance: I L K W P W W P W R R K [MBI 11B3CN]
- MIC (A. calcoaceticus AC001): 64 mg/L
- MIC (E. cloacae ECL007): >128 mg/L
- MIC (E. coli ECO002): 16 mg/L
- MIC (E. faecalis EFS001): 16 mg/L
- MIC (E. faecium EFM001): 8 mg/L
- MIC (K. pneumoniae KP002): 64 mg/L
- MIC (P. aeruginosa PA003): >128 mg/L
- MIC (S. aureus SA010): 4 mg/L
- MIC (S. maltophilia SMA002): 32 mg/L
- MIC (S. marcescens SMS004): >128 mg/L

Substance: I L P W K W P W W P W R R [MBI 10A]
- MIC (E. faecalis EFS004): 16 mg/L
- MIC (E. faecium EFM003): 8 mg/L
- MIC (S. aureus SA010): 8 mg/L

Substance: I L R R W P W W P W R K [MBI 11B2CN]
- MIC (A. calcoaceticus AC001): 64 mg/L
- MIC (E. cloacae ECL007): >128 mg/L
- MIC (E. coli ECO003): 16 mg/L
- MIC (E. faecalis EFS004): 8 mg/L
- MIC (E. faecium EFM001): 8 mg/L
- MIC (K. pneumoniae KP002): 64 mg/L
- MIC (P. aeruginosa PA003): >128 mg/L
- MIC (S. aureus SA005): 2 mg/L
- MIC (S. maltophilia SMA002): 64 mg/L
- MIC (S. marcescens SMS004): >128 mg/L

Substance: I L R R W P W W P W R R K [MBI 11B1CNW1]
- MIC (A. calcoaceticus AC002): 16 mg/L
- MIC (E. cloacae ECL007): 64 mg/L
- MIC (E. coli ECO005): 32 mg/L
- MIC (E. faecalis EFS004): 8 mg/L
- MIC (K. pneumoniae KP001): 32 mg/L
- MIC (P. aeruginosa PA004): 64 mg/L
- MIC (S. aureus SA014): 16 mg/L
- MIC (S. epidermidis SE010): 8 mg/L
- MIC (S. maltophilia SMA002): 32 mg/L
- MIC (S. marcescens SMS003): >128 mg/L

Substance: I L R R W P W W P W R R R [MBI 11B9ACN]
- MIC (A. calcoaceticus AC001): 32 mg/L
- MIC (E. coli ECO003): 8 mg/L
- MIC (E. faecalis EFS004): 8 mg/L
- MIC (E. faecium EFM001): 4 mg/L
- MIC (K. pneumoniae KP002): 32 mg/L
- MIC (P. aeruginosa PA005): >128 mg/L
- MIC (S. aureus SA019): 2 mg/L
- MIC (S. epidermidis SE002): 2 mg/L
- MIC (S. maltophilia SMA001): 16 mg/L
- MIC (S. marcescens SMS004): >128 mg/L

Substance: I L R W P W W P W A R K [MBI 11H10CN]
- MIC [1]: 4 mg/L
- MIC [2]: >128 mg/L
- MIC [3]: 16 mg/L
- MIC [4]: 2 mg/L
- MIC [5]: 8 mg/L
- MIC [6]: 16 mg/L
- MIC [7]: >128 mg/L
- MIC [8]: 4 mg/L
- MIC [9]: 1 mg/L
- MIC [10]: 4 mg/L
- MIC [11]: 64 mg/L
- MIC [12]: >128 mg/L

Substance: I L R W P W W P W R A K [MBI 11H11CN]
- MIC [1]: 4 mg/L
- MIC [2]: >128 mg/L
- MIC [3]: 16 mg/L
- MIC [4]: 2 mg/L
- MIC [5]: 8 mg/L
- MIC [6]: 16 mg/L
- MIC [7]: >128 mg/L
- MIC [8]: 4 mg/L
- MIC [9]: 1 mg/L
- MIC [10]: 4 mg/L
- MIC [11]: 64 mg/L
- MIC [12]: >128 mg/L

Substance: I L R W P W W P W R R A [MBI 11H12CN]
- MIC [1]: 4 mg/L
- MIC [2]: >128 mg/L
- MIC [3]: 16 mg/L
- MIC [4]: 2 mg/L
- MIC [5]: 8 mg/L
- MIC [6]: 16 mg/L
- MIC [7]: >128 mg/L
- MIC [8]: 2 mg/L
- MIC [9]: 1 mg/L
- MIC [10]: 4 mg/L
- MIC [11]: 64 mg/L
- MIC [12]: >128 mg/L

Substance: ILRWPWWPWRRKDMILKKAGS [MBI 11B18CN]
- MIC (A. calcoaceticus AC002): 2 mg/L
- MIC (E. cloacae ECL007): >128 mg/L
- MIC (E. coli ECO005): 32 mg/L
- MIC (E. faecalis EFS008): 4 mg/L
- MIC (K. pneumoniae KP001): 32 mg/L
- MIC (P. aeruginosa PA004): >128 mg/L
- MIC (S. aureus SA093): 2 mg/L
- MIC (S. epidermidis SE010): 4 mg/L
- MIC (S. maltophilia SMA002): 64 mg/L
- MIC (S. marcescens SMS003): >128 mg/L

Substance: ILRWPWWPWRRKMILKKAGS [MBI 11B17CN]
- MIC (A. calcoaceticus AC002): 2 mg/L
- MIC (E. cloacae ECL007): >128 mg/L
- MIC (E. coli ECO005): 8 mg/L
- MIC (E. faecalis EFS008): 4 mg/L
- MIC (K. pneumoniae KP001): 16 mg/L
- MIC (P. aeruginosa PA004): >128 mg/L
- MIC (S. aureus SA093): 2 mg/L
- MIC (S. epidermidis SE010): 4 mg/L
- MIC (S. maltophilia SMA002): 32 mg/L
- MIC (S. marcescens SMS003): >128 mg/L

Substance: I L R W P W W P W R R K [MBI 11B7CNF12]
- MIC [1]: 4 mg/L
- MIC [2]: >128 mg/L
- MIC [3]: 16 mg/L
- MIC [4]: 2 mg/L
- MIC [5]: 8 mg/L
- MIC [6]: 16 mg/L
- MIC [7]: >128 mg/L
- MIC [8]: 2 mg/L
- MIC [9]: 1 mg/L
- MIC [10]: 4 mg/L
- MIC [11]: 64 mg/L
- MIC [12]: >128 mg/L

Substance: I L R Y V Y Y V Y R R K [MBI 11A8CN]
- MIC (A. calcoaceticus AC002): 8 mg/L
- MIC (E. cloacae ECL007): >128 mg/L
- MIC (E. coli ECO005): 32 mg/L
- MIC (E. faecalis EFS001): 4 mg/L
- MIC (K. pneumoniae KP001): 128 mg/L
- MIC (P. aeruginosa PA004): >128 mg/L
- MIC (S. aureus SA093): 1 mg/L
- MIC (S. epidermidis SE010): 6 mg/L
- MIC (S. maltophilia SMA002): 32 mg/L
- MIC (S. marcescens SMS003): >128 mg/L

Substance: K R R W P W W P W R L I [MBI 11B7CNR]
- MIC (A. calcoaceticus AC002): 4 mg/L
- MIC (E. cloacae ECL007): 64 mg/L
- MIC (E. coli ECO005): 8 mg/L
- MIC (E. faecalis EFS001): 4 mg/L
- MIC (K. pneumoniae KP001): 8 mg/L
- MIC (P. aeruginosa PA004): 64 mg/L
- MIC (S. aureus SA093): 2 mg/L
- MIC (S. epidermidis SE010): 4 mg/L
- MIC (S. maltophilia SMA002): 32 mg/L
- MIC (S. marcescens SMS003): >128 mg/L
